The values below come from US20080075796A1, “Compositions and Methods for Controlling Insects” (TyraTech, Inc., priority 2003, published 2008).

In general, EC50 refers to the concentration that produces a half-maximal response. The Ki is a measure of affinity in units of concentration, obtained from inhibition or displacement. Higher therefore signals a looser hold on the target. The term Kd denotes the concentration at which binding is half-saturated. Higher therefore signals lower affinity.

For assay [1], the target named is T1, tyramine receptor (TyrR) (Drosophila melanogaster, UniProt P22270).
T1 sequence (P22270 27-601): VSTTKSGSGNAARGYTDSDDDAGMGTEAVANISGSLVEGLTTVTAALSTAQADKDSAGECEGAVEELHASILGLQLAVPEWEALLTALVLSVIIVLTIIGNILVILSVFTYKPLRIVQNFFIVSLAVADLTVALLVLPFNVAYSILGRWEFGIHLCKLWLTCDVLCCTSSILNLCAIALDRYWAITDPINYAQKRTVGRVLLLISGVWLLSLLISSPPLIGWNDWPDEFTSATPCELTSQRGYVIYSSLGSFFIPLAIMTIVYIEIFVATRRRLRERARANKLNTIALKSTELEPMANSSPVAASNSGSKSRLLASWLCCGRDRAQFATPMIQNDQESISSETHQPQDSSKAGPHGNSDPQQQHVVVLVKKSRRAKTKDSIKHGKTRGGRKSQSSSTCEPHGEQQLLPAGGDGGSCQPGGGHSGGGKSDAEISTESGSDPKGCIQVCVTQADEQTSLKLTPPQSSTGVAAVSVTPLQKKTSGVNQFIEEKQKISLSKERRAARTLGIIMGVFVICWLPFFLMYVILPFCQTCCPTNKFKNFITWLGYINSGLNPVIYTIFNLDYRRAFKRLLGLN
Description: cAMP levels in Schneider cells expressing tyramine receptor. The format is cell-based. Further details: oligonucleotides that are used to amplify the open reading frame of the Drosophila tyramine receptor (TyrR); expressed in transfected cells. How it is done:
Cells are grown on dishes and the media changed the day before the treatment. When cells are approximately 95% confluent, media is aspirated and the cells are washed one time with about 5 mL of about 27° C. insect saline (170 mM NaCl, 6.0 mM KCl, 2.0 mM NaHCO3, 17.0 mM glucose, 6.0 mM NaH2PO4, 2.0 mM CaCl2, 4.0 mM MgCl2; pH 7.0). About 20 mL of insect saline is added, and cells are harvested by gentle scraping. An aliquot of the cells is counted by hemocytometer, and the cells are then centrifuged for about 5 minutes at about 1000 RPM. Cells are resuspended to give about 3×10^6 cells per mL. IBMX is added to about 200 μM. Then about 1 mL of cell suspension is aliquoted for treatment. Forskolin (cAMP inducing agent), tyramine or different composition candidates are added, and the cells are incubated at about 27° C. for about 10 minutes.
Treated cells are centrifuged at about 13000 g for about 10 seconds. The solution is aspirated and about 1 mL of about −20° C. 70% ethanol is added. The cell pellet is disrupted by vortexing and the samples placed at about −20° C. overnight. Following the ethanol extraction, cellular debris is pelleted by centrifugation at about 13000 g for about 5 minutes. The supernatant is transferred to a tube and lyophilized to dryness in a rotary speed-vac. […]
The cAMP assay is based on competition binding between endogenous cAMP and ^3H-cAMP to a cAMP binding protein. […] About 200 μL of the reaction mixture is removed and levels of ^3H-cAMP are determined by scintillation counting. Levels of endogenous cAMP from the cells are calculated using a standard curve with cold cAMP ranging from about 0 to 16 pmol per reaction.
To examine test chemical-dependent coupling of the tyramine receptor, pAcB-TyrR is stably expressed in Schneider cells. Transfected and untransfected cells are treated with tyramine (about 10 μM), LFO (about 25 μg/ml) and BSO (about 25 μg/ml) in the presence and absence of forskolin (FK) (about 10 μM). cAMP production is measured using the ^3H-cAMP assay kit (Amersham) as described above.
In general terms: Cyclic AMP is a second messenger, typically raised through Gs and lowered through Gi signalling.

Assay [2] deals with T1, tyramine receptor (TyrR). Conditions: displacement of about 2 nM ^3H-tyramine.
Description: (§2) A preliminary study to determine the optimum concentration of membrane protein for receptor binding activity is performed. […] After about 1 hr incubation at room temperature, reactions are terminated by filtration through GF/C filters (VWR), which have been previously soaked in about 0.3% polyethyleneimine (PEI). The filters are washed one time with about 4 ml ice cold Iris buffer and air dried before the retained radioactivity is measured using LSC. Binding data is analyzed by curve fitting (GraphPad software, Prism).
(§3) Receptor binding reactions are incubated for about 1 hr at room temperature (RT) in restricted light. Reactions are terminated by filtration through OF/C filters (VWR), which have been previously soaked in about 0.3% polyethyleneimine (PEI). The filters are washed one time with about 4 ml ice cold Tris buffer and air dried before retained radioactivity is measured using LSC. Binding data is analyzed by curve fitting (GraphPad software, Prism).
Assay [3] has as its target T2, Or83b receptor (Drosophila melanogaster, UniProt Q9VNB5).
T2 construct: His (from vector pAc5.1/V5-His B) (C); expressed in transfected cells
T2 sequence (Q9VNB5 1-486): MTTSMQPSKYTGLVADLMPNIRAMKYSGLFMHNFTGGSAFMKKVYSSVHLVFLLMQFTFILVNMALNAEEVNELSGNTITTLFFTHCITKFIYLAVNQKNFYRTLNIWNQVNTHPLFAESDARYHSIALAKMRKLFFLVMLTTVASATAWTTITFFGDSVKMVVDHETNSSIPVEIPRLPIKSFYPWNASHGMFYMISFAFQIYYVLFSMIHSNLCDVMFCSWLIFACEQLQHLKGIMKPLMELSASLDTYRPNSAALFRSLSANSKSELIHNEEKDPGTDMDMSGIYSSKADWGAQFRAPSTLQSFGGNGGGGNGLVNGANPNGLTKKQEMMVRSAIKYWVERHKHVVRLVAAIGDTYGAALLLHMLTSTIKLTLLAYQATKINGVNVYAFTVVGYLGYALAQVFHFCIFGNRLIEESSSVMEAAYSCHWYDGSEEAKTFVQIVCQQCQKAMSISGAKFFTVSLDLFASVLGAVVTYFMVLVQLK
Briefly: Saturation binding of ^3H-tyramine to membranes from Schneider cells expressing Or83b receptor. The method, then:
(§1) To address whether Or83b receptor and Or43a receptor contain a specific binding site for tyramine, membranes expressing Or83b receptor or Or43a receptor are prepared from cells expressing either receptor, as described above, and used for competitive binding with ^3H-tyramine. The binding assay protocol is exactly as described for cells expressing TyrR, as described above.

Assay [4] addresses T3, Or43a receptor (Drosophila melanogaster, UniProt P81917, L154V).
T3 construct: His (from vector pAc5.1/V5-His B) (C); expressed in transfected cells
Description: biochemical. The assay is classed as binding. The method, then:
as §1

The target in assay [5] is T1, tyramine receptor (TyrR). Description: Saturation binding of ^3H-tyramine to membranes from Schneider cells expressing tyramine receptor.
Description: as §2, §3

Several values for one entry are separate records, joined by “and”; a condition that tells them apart may be missing. Equal values may be shown once. Read-outs that look alike come from different tables or passages of the source.

T3 sequence (P81917 whole entry L154V): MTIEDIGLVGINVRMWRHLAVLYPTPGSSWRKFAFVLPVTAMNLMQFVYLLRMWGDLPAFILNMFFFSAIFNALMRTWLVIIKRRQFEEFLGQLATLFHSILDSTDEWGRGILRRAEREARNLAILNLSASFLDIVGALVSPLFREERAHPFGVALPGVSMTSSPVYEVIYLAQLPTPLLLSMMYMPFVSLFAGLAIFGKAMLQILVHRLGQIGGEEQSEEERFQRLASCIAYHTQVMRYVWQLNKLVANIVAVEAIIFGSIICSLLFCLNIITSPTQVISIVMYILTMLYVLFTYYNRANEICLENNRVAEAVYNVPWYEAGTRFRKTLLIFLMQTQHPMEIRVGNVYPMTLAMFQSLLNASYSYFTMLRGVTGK

As for `NCCc1ccc(O)cc1` [tyramine], the “effect on cAMP in the presence of forskolin” value in assay [1] (forskolin about 10 μM) is listed as “significantly antagonizes forskolin-stimulated cAMP levels”. The “decrease in cAMP level” value in assay [1] (tyramine about 10 μM, LFO and BSO about 25 μg/ml, without forskolin) is listed as “about 10%”. Moreover, the EC50 in assay [2] (EC50 (concentration at which binding is inhibited by 50%)) is ~305 nM and 305 nM. Besides, the Ki in assay [2] (Ki) is ~127 nM and 127 nM; in assay [3], 96.9 nM; in assay [4], 13.5 nM; in assay [5] it was 1.26 nM. The Kd is approximately 96.9 nM in assay [3] and approximately 13.5 nM in assay [4]. In assay [5] (saturation binding, membranes expressing TyrR, listed as Tyramine), this compound returned a Bmax of 0.679 pmol/mg protein.
